Results on two compounds are retold here after PMC11156613 (Journal of Advanced Research, 2023).

Assay [1] addresses Recombinant human HDAC3/NCOR1 (Homo sapiens, UniProt O15379). As to the kind of experiment: In vitro HDAC enzymatic assay, HDAC3.
The target of a further assay is Recombinant human HDAC2 (Homo sapiens, UniProt Q92769). As to the kind of experiment: In vitro HDAC enzymatic assay, HDAC2. Type of assay: biochemical.
The target of another assay is T1, recombinant human HDAC8 (Homo sapiens, UniProt Q9BY41).
T1 sequence (Q9BY41 1-377): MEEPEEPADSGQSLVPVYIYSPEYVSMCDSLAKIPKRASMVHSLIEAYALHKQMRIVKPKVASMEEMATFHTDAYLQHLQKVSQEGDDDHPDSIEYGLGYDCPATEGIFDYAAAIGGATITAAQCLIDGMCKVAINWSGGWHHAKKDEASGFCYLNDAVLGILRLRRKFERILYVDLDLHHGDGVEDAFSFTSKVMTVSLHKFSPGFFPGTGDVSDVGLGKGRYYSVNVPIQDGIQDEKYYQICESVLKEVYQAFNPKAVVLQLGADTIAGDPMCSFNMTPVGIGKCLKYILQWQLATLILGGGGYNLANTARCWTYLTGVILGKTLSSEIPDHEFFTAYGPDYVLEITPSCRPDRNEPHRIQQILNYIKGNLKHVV
Put plainly: In vitro HDAC8 homogenous fluorescence assay. Type of assay: biochemical.

The target of a further assay is Recombinant human HDAC1 (Homo sapiens, UniProt Q13547). Put plainly: In vitro HDAC enzymatic assay, HDAC1. Type of assay: biochemical.
The target of the next assay is T2, Recombinant human HDAC11 (Homo sapiens, UniProt Q96DB2).
T2 sequence (Q96DB2 1-347): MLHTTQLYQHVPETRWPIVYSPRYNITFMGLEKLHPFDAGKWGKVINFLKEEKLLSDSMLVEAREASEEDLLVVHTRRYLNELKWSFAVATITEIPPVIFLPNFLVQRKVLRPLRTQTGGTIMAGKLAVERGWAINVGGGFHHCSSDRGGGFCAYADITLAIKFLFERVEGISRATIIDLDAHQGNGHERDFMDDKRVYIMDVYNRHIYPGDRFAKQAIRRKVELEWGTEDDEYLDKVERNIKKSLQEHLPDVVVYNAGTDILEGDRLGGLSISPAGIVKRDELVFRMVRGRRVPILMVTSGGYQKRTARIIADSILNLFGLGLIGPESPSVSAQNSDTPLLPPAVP
Put plainly: In vitro HDAC11 inhibition assay. The format is biochemical.

A further assay addresses T3, Recombinant human HDAC6 (Homo sapiens, UniProt Q9UBN7).
T3 sequence (Q9UBN7 1-1215): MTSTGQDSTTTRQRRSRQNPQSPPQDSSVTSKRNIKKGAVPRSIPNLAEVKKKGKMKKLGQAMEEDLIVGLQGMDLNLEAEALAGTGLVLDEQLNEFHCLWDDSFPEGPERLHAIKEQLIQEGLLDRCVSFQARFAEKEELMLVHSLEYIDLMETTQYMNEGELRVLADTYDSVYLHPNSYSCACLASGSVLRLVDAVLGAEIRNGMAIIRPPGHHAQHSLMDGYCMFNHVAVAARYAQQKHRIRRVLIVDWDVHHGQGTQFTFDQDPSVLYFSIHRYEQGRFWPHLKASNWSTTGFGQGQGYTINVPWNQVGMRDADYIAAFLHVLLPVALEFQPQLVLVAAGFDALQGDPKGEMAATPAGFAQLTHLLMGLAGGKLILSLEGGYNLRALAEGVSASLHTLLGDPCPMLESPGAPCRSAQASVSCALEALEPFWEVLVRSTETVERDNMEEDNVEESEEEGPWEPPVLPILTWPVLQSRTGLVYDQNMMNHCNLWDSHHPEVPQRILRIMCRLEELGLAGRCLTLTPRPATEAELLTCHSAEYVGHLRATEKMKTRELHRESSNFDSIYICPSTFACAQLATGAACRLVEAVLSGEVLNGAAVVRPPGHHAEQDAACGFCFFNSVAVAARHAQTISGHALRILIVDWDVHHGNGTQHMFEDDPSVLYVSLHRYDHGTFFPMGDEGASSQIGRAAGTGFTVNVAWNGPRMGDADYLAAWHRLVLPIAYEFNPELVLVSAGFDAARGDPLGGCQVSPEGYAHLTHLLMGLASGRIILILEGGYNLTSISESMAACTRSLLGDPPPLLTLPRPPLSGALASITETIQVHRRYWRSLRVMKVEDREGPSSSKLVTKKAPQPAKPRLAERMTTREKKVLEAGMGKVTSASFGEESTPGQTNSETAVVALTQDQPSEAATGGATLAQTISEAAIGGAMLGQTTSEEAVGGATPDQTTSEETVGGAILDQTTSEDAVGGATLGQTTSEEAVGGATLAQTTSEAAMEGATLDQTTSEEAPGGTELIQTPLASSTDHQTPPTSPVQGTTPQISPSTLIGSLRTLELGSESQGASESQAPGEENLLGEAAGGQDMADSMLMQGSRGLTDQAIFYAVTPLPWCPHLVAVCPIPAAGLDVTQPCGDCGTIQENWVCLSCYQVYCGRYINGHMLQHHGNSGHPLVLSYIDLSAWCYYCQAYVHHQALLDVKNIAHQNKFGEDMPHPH
As to the kind of experiment: In vitro HDAC enzymatic assay, HDAC6. Type of assay: biochemical.

For another assay, the system named is HEL cells. Put plainly: Apoptosis induction, annexin-V/PI flow cytometry. The format is cell-based, human. Particulars: 24 h. In general terms: A flow cytometer gives signals particle by particle.

Like-named read-outs stand apart in the source and are kept apart here.

Sequence of Recombinant human HDAC1 (Q13547 whole entry): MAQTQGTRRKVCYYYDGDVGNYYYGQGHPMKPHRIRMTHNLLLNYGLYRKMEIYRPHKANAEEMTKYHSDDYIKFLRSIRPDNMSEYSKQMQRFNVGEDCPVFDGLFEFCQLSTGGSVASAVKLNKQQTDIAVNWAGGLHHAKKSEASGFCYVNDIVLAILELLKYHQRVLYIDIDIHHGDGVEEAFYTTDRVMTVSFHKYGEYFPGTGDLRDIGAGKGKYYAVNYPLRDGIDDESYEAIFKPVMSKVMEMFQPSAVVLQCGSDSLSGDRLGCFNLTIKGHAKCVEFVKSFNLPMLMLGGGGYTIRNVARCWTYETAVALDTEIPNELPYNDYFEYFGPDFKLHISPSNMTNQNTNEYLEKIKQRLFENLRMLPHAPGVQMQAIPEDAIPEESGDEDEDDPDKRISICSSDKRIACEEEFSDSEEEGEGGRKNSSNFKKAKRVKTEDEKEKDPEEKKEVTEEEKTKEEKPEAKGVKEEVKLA
Sequence of Recombinant human HDAC2 (Q92769 whole entry): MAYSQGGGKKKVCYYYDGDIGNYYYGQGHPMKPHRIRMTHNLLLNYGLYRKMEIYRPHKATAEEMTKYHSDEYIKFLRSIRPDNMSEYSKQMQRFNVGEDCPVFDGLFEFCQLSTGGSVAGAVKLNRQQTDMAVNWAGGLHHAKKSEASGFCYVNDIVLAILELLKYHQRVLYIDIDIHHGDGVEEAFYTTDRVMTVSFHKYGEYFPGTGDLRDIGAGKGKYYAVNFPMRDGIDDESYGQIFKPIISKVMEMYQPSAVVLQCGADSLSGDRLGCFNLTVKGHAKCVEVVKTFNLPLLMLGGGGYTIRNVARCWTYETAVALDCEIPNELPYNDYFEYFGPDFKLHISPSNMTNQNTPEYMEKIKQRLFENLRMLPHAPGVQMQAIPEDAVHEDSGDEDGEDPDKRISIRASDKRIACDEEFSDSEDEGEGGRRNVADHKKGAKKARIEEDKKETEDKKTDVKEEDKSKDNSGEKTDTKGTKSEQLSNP
Sequence of Recombinant human HDAC3/NCOR1 (O15379 whole entry): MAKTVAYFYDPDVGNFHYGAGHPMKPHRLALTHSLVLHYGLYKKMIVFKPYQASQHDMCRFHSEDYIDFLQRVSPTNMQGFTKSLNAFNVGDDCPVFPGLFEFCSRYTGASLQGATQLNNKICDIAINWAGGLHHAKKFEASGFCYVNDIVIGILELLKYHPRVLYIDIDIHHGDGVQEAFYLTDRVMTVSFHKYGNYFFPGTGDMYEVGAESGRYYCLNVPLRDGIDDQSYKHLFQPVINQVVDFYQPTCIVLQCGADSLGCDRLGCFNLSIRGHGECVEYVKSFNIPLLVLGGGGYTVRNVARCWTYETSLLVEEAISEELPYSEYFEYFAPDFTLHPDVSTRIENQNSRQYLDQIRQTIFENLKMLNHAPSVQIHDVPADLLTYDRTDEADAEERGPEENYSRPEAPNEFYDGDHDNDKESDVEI
Sequence of Recombinant human HDAC3/NCOR1 (O75376 395-489 partner limits assumed): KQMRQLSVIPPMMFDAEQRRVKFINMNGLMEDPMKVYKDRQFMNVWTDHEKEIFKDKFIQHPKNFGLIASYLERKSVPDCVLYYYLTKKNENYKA

As for `COc1ccc(/C=C/CN2CCN(c3ncc(C(=O)NO)cn3)CC2)cc1.Cl` [KH9, (E)-N-Hydroxy-2-(4-(3-(4-methoxyphenyl)allyl)piperazin-1-yl)pyrimidine-5-carboxamide Hydrchloride], the IC50 (in general, the point on the concentration scale where inhibition reaches its midpoint) came to 0.019 ± 0.001 µM in assay [1] (read-out: HDAC3 IC50, Ac-RHKK(Acetyl)-AMC substrate, 37 °C); 0.022 ± 0.001 µM at Recombinant human HDAC2 (read-out: HDAC2 IC50, Ac-RHKK(Acetyl)-AMC substrate, 37 °C); 0.11 ± 0.01 µM on recombinant human HDAC8 (read-out: HDAC8 IC50, ZMAL 10.5 μM, 90 min, 37 °C); 0.009 µM at Recombinant human HDAC1 (read-out: HDAC1 IC50); 0.0089 ± 0.0005 µM on Recombinant human HDAC1 (read-out: HDAC1 IC50, Ac-RHKK(Acetyl)-AMC substrate, 37 °C); 1.5 ± 0.1 µM at Recombinant human HDAC11 (read-out: HDAC11 IC50). Further, on Recombinant human HDAC6 (read-out: HDAC6 IC50, Abz-SRGGK(thio-TFA)FFRR-NH2 substrate), the IC50 came out at 0.14 ± 0.01 µM. Also, the “concentration at which apoptosis induction starts” value in the assay with HEL cells is “approximately 50 nM”.

In the case of `Cl.Cn1cc(CN2CCN(c3ncc(C(=O)NO)cn3)CC2)c2ccccc21` [KH29, N-hydroxy-2-(4-((1-methyl-1H-indol-3-yl)methyl)piperazin-1-yl)pyrimidine-5-carboxamide Hydrochloride], the IC50 turned out to be 0.02 ± 0.001 µM in assay [1]; 0.026 ± 0.001 µM on Recombinant human HDAC2; 0.049 ± 0.002 µM on recombinant human HDAC8; 0.0094 ± 0.0005 µM at Recombinant human HDAC1 (HDAC1 IC50, Ac-RHKK(Acetyl)-AMC substrate, 37 °C); 0.009 µM on Recombinant human HDAC1 (HDAC1 IC50, as stated in text); 1 ± 0.1 µM at Recombinant human HDAC11. Besides, on Recombinant human HDAC6, the IC50 came to 0.025 ± 0.001 µM. Moreover, the “fold more potent inhibitor of HDAC6 than KH9 and KH16” value on Recombinant human HDAC6 (from Table 1 IC50 values) is recorded as “at least 10 fold”. For the same compound, the “concentration at which apoptosis induction starts” value with HEL cells was 55 nM.
